Several values for one entry are separate records, joined by “and”; a condition that tells them apart may be missing. Equal entries are not always repeated.
Columns and labels:
SGLT1 [1] = biological target: T1, SGLT1 (Homo sapiens, UniProt P13866); experiment: Change in SGLT1 inhibition according to drug pretreatment time (CHO-SGLT1); format: cell-based; details: for IC50: CHO-SGLT1; for Change in SGLT1 inhibition as exposure time increased: pretreatment 0, 1, 2 h, one-way ANOVA
T1 construct: expressed in transfected cells
T1 sequence (P13866 1-664): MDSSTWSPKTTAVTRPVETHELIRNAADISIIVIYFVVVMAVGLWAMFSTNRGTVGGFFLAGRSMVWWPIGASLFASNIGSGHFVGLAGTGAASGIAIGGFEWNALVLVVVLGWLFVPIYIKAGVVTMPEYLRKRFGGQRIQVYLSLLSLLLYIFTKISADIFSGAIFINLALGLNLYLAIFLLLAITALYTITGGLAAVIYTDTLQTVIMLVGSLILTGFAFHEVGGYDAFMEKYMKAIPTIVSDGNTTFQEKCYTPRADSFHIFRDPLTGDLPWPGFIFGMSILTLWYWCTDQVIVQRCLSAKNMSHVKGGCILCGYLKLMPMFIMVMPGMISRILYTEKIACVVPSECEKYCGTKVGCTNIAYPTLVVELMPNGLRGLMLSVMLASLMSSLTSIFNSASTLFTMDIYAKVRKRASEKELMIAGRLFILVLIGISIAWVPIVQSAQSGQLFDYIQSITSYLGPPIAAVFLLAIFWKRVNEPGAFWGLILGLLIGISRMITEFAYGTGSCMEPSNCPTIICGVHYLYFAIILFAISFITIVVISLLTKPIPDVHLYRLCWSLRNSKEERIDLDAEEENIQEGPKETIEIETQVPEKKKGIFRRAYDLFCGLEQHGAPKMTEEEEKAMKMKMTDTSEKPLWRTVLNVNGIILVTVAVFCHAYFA
Description: All data values are expressed as the mean±SD of […].

human hepatocytes = details: cited from earlier work
SGLT2 [2] = biological target: T2, SGLT2 (Homo sapiens, UniProt P31639); experiment: Inhibition of [14C]AMG uptake in SGLT2-overexpressing CHO cells; format: cell-based; details: for IC50: CHO-SGLT2 cells, 10 μM [14C]AMG, 2 h, 37° C.; for IC50 ratio (SGLT1/SGLT2): ratio of SGLT1 IC50 to SGLT2 IC50
T2 construct: expressed in transfected cells
T2 sequence (P31639 1-672): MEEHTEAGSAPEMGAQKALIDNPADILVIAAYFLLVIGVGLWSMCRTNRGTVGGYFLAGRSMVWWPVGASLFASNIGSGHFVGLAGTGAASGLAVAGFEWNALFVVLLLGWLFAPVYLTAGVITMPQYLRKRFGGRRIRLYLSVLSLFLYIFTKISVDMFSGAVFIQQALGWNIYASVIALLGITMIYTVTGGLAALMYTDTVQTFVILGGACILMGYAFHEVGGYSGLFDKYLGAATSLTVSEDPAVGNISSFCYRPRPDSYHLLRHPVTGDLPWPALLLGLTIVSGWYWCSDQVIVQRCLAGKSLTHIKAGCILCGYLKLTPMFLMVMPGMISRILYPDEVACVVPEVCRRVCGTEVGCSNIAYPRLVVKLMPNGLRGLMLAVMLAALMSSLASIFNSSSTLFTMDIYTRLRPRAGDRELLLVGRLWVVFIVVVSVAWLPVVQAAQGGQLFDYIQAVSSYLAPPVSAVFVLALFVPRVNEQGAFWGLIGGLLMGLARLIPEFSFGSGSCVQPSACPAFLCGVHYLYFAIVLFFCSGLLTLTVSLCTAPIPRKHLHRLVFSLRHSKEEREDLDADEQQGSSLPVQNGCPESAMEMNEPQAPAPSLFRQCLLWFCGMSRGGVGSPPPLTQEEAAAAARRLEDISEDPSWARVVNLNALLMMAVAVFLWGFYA
Method: The evaluation was performed in the same manner as the evaluation of SGLT1 inhibition, except that an SGLT2-overexpressing cell line (CHO-SGLT2 stable cells) was used, and the inhibitory evaluation substances described below were used.

SGLT1 [3] = biological target: T1, SGLT1; experiment: Inhibition of [14C]AMG uptake in SGLT1-overexpressing CHO cells; format: cell-based; details: IC50 (nM) SGLT1 mean ± SD (n = 3), 10 μM [14C]AMG, 2 h, 37° C.
Method: An SGLT1-overexpressing cell line (CHO-SGLT1 stable cells) and mock cells (CHO-mock cells) were cultured to reach 80% confluency, and then the cells were seeded in 96-well plates at 1×10^5 cells/well.
After 24 hours, the medium was removed, and a pre-incubation buffer [10 mM hydroxyethylpiperazine ethane sulfonic acid (HEPES), 5 mM Tris, 140 mM choline chloride, 2 mM KCl, 1 mM CaCl2), 1 mM MgCl2, pH 7.4] was added, and the cells were cultured for one hour.
After one hour, the pre-incubation buffer was removed, and an incubation buffer [10 mM HEPES, 5 mM Tris, 140 mM NaCl, 2 mM KCl, 1 mM CaCl2), 1 mM MgCl2, pH 7.4] containing 10 μM [^14C] methyl α-D-glucopyranoside (AMG), a substrate of SGLT1, and inhibitory evaluation substances at various concentrations was added and allowed to react in a thermo micro mixer at 37° C. for two hours.
After a preset time, the cells were washed twice with 200 μL of ice-cold washing buffer [10 mM HEPES, 5 mM Tris, 140 mM choline chloride, 2 mM KCl, 1 mM CaCl2), 1 mM MgCl2, 100 mM AMG, pH 7.4].
After removing the medium, 40 μL of 10% sodium dodecyl sulfate (SDS) solution was added to lyse the cells, and then the samples were transferred to a measurement plate of a liquid scintillation counter, and 150 μL of OptiPhase Supermix®, an isotope measurement cocktail solution, was added, and the cells were incubated overnight to ensure that the cell solution was homogeneously mixed with the cocktail solution.
[^14C]AMG in the samples was measured using the liquid scintillation counter.
At this time, the inhibitory effect Sigmoid Emax model was used, and the WinNonlin program (ver. 2.0) was utilized. All data values were expressed as the mean±standard deviation (SD) of three independent experiments.

SGLT2 [4] = biological target: T2, SGLT2; experiment: SGLT2 inhibition with varied substrate AMG concentration (Dixon / L-B plot); format: cell-based; details: for Inhibition mechanism, SGLT2: CHO-SGLT2, varied AMG concentration; for Ki: from slope of L-B plot, CHO-SGLT2
Method: From these, the inhibition mechanism was confirmed, and the inhibition constant was calculated.

[5] = test system: STZ-induced type 1 diabetic rats; experiment: Oral glucose tolerance test in type 1 diabetic rat model; format: in vivo; details: for Blood glucose level in OGTT: glucose 2 g/kg oral
Method: STZ was administered to Sprague Dawley (SD) male 5-week-old rats on day 0 (G2 to G7, excluding G1), and non-fasting blood glucose levels were measured on day 3 to determine whether type 1 diabetes was induced. On day 7, the experimental substances were administered to each group, and blood and urine samples were collected at 6 h, 24 h, 48 h, and 72 h to measure non-fasting blood glucose levels. On day 14 of the experiment, the experimental animals were fasted for 16 h, and on day 15, 2 g/kg of glucose solution was orally administered after the experimental substances were administered. Thereafter, blood glucose levels were measured at 15, 30, 60, 90, and 120 minutes after glucose administration. After blood collection, the serum was separated, and the IL-6 inflammatory response was evaluated using an interleukin-6 (IL-6) enzyme-linked immunosorbent assay (ELISA) kit.

[6] = IC50 according to pretreatment time (nM), SGLT1, 1 h, 1 h pretreatment in sodium-free buffer
[7] = IC50 according to pretreatment time (nM), SGLT1, 2 h, 2 h pretreatment in sodium-free buffer
[8] = no pretreatment, read-out: IC50 according to pretreatment time (nM), SGLT1, 0 h

| IC50 (SGLT1 [1]; [6]) [nM] | IC50 (SGLT1 [1]; [7]) [nM] | IC50 (SGLT1 [1]; [8]) [nM] | IC50 (SGLT2 [2]) [µM] | IC50 ratio (SGLT1/SGLT2) (SGLT2 [2]) | IC50 (SGLT1 [3]) | Inhibition mechanism, SGLT2 (SGLT2 [4]) | Ki (SGLT2 [4]) [nM] | SMILES | Change in SGLT1 inhibition as exposure time increased (SGLT1 [1]) | Enzymes catalyzing formation of the metabolite (human hepatocytes) | AUC of blood glucose in OGTT ([5]; STZ rats, 1 mg/kg) | Blood glucose level in OGTT ([5]; STZ rats, 1 mg/kg) | Dose dependence of glucose tolerance in OGTT ([5]; STZ rats, 0.01, 0.1, 1 mg/kg) | Number of metabolites produced in human hepatocytes (human hepatocytes; M1, M2, M3, U1, U2) |
| --- | --- | --- | --- | --- | --- | --- | --- | --- | --- | --- | --- | --- | --- | --- |
| 1020 ± 225 | 1180 ± 177 | 1080 ± 71 | 0.00302 ± 0.00036 | 402 | 1220 ± 165 nM | Competitive inhibition | 6.18 | OC[C@H]1O[C@@H](c2cc(Cc3ccc(C4(O)CC4)cc3)c(Cl)c3c2CCO3)[C@H](O)[C@@H](O)[C@@H]1O [M2, (2S,3R,4R,5S,6R)-2-(7-chloro-6-(4-(1-hydroxycyclopropyl)benzyl)-2,3-dihydrobenzofuran-4-yl)-6-(hydroxymethyl)tetrahydro-2H-pyran-3,4,5-triol] | did not show any significant change or increase in inhibition | CYP3A4 and CYP2C19 |  |  |  |  |
| 103 ± 22.4 | 76.6 ± 1.2 | 29.2 ± 13.5 | 0.00471 ± 0.00069 | 6.0 | ~28.4 nM and 28.4 nM | Competitive inhibition | 7.49 | OC[C@H]1O[C@@H](c2cc(Cc3ccc(C4CC4)cc3)c(Cl)c3c2CC(O)O3)[C@H](O)[C@@H](O)[C@@H]1O (stereo partly drawn) [M1, (2S,3R,4R,5S,6R)-2-(7-chloro-6-(4-cyclopropylbenzyl)-2-hydroxy-2,3-dihydrobenzofuran-4-yl)-6-(hydroxymethyl)tetrahydro-2H-pyran-3,4,5-triol] | significantly increased | CYP3A4 and CYP2C19 | best oral glucose tolerance improvement effect | fastest and strongest blood glucose lowering effect | dose-dependent improvement in glucose tolerance |  |
| 889 ± 238 | 829 ± 194 | 867 ± 163 | 0.00034 ± 8e-05 | 2538 | 861 ± 59.4 nM | Competitive inhibition | 0.411 | OC[C@H]1O[C@@H](c2cc(Cc3ccc(C4CC4)cc3)c(Cl)c3c2CCO3)[C@H](O)[C@@H](O)[C@@H]1O [Enavogliflozin, (2S,3R,4R,5S,6R)-2-(7-chloro-6 (4-cyclopropylbenzyl)-2,3-dihydrobenzofuran-4-yl)-6-(hydroxymethyl)tetrahydro-2H-pyran-3,4,5-triol] | did not show any significant change or increase in inhibition |  |  | lowering of the blood glucose level was observed |  | five |

From patent US20260124170A1, “PHARMACEUTICAL COMPOSITION COMPRISING METABOLITE OF ENAVOGLIFLOZIN, AND USE THEREOF” (DAEWOONG PHARMACEUTICAL CO., LTD., priority 2022, published 2026)
